In patent publication US20260028341A1, “IMIDAZOTRIAZINE DERIVATIVES AS IL-17 MODULATORS” (UCB BIOPHARMA SRL, priority 2022, published 2026):

target: T1, IL-17A (Homo sapiens, UniProt Q16552); experiment: Inhibition of IL-17A induced IL-6 release from dermal fibroblast cell line (HDF cell line assay); assay type: cell-based; conditions: HDF cells stimulated with IL-17A (50 pM) plus TNF-α (25 pM); IL-6 release measured by HTRF
T1 sequence (Q16552 24-155): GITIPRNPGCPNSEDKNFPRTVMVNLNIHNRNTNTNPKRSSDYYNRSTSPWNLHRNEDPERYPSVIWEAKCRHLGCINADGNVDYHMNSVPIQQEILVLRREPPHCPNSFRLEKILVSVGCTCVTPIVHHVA
Excerpt: Inhibition of IL-17A Induced IL-6 Release from Dermal Fibroblast Cell Line
The purpose of this assay is to test the neutralising ability to IL-17 proteins, in a human primary cell system. Stimulation of normal human dermal fibroblasts (HDF) with IL-17 alone produces only a very weak signal but in combination with certain other cytokines, such as TNFα, a synergistic effect can be seen in the production of inflammatory cytokines, i.e. IL-6.
HDFs were stimulated with IL-17A (50 pM) in combination with TNF-α (25 pM). The resultant IL-6 response was then measured using a homogenous time-resolved FRET kit from Cisbio. The kit utilises two monoclonal antibodies, one labelled with Eu-Cryptate (Donor) and the second with d2 or XL665 (Acceptor). The intensity of the signal is proportional to the concentration of IL-6 present in the sample (Ratio is calculated by 665/620×104).
The ability of a compound to inhibit IL-17 induced IL-6 release from human dermal fibroblasts is measured in this assay.
HDF cells (Sigma #106-05n) were cultured in complete media (DMEM+10% FCS+2 mM L-glutamine) and maintained in a tissue culture flask using standard techniques. Cells were harvested from the tissue culture flask on the morning of the assay using TrypLE (Invitrogen #12605036). The TrypLE was neutralised using complete medium (45 mL) and the cells were centrifuged at 300×g for 3 minutes. The cells were re-suspended in complete media (5 mL) counted and adjusted to a concentration of 3.125×10^4 cells/mL before being added to the 384 well assay plate (Corning #3701) at 40 μL per well. The cells were left for a minimum of three hours, at 37° C./5% CO2, to adhere to the plate.
Compounds were serially diluted in DMSO before receiving an aqueous dilution into a 384 well dilution plate (Greiner #781281), where […] from the titration plate was transferred to 45 μL of complete media and mixed to give a solution containing 10% DMSO.
Mixtures of TNFα and IL-17 cytokine were prepared in complete media to final concentrations of TNFα 25 pM/IL-17A 50 pM, then 30 μL of the solution was added to a 384 well reagent plate (Greiner #781281).
10 μL from the aqueous dilution plate was transferred to the reagent plate containing 30 μL of the diluted cytokines, to give a 2.5% DMSO solution. The compounds were incubated with the cytokine mixtures for 5 h at 37° C. After the incubation, 10 μL was transferred to the assay plate, to give a 0.5% DMSO solution, then incubated for 18-20 h at 37° C./5% CO2.
From the Cisbio IL-6 FRET kit (Cisbio #62IL6PEB) europium cryptate and Alexa 665 were diluted in reconstitution buffer and mixed 1:1, as per kit insert. To a white low volume 384 well plate (Greiner #784075) were added FRET reagents (10 μL), then supernatant (10 μL) was transferred from the assay plate to Greiner reagent plate. The mixture was incubated at room temperature for 3 h with gentle shaking (<400 rpm) before being read on a Synergy Neo 2 plate reader (Excitation: 330 nm; Emission: […]).

Row | Compound | IC50 | pIC50
1 | Cc1nonc1C(=O)N[C@H](c1cn2ncc(C3(N4CC(C(F)(F)F)NC4=O)CCN(C(=O)OC(C)(C)C)CC3)nc2n1)C1CCC(F)(F)CC1 (stereo partly drawn) [Example 6, tert-Butyl 4-(6-{(S)-(4,4-difluorocyclohexyl)[(4-methyl-1,2,5-oxadiazole-3-carbonyl)-amino]methyl}imidazo[1,2-b][1,2,4]triazin-3-yl)-4-[2-oxo-4-(trifluoromethyl)-imidazolidin-1-yl]piperidine-1-carboxylate] | 7.94 nM | 
2 | Cc1nonc1C(=O)N[C@H](c1cn2ncc([C@@]3(N4C[C@H](C(F)(F)F)NC4=O)CCOC3)nc2n1)C1CCC(F)(F)CC1 (single isomer, unassigned) [Example 13] | 7940 nM | 
3 | Cc1nonc1C(=O)N[C@H](c1cn2ncc(C3(N4C[C@@H](C(F)(F)F)NC4=O)CCN(CC(C)(C)F)CC3)nc2n1)C1CCC(F)(F)CC1 (single isomer, unassigned) [Example 16] | 3.98 nM | 
4 | Cc1nonc1C(=O)N[C@H](c1cn2ncc(C3(N4C[C@@H](C(F)(F)F)NC4=O)CCN(CC(C)(F)F)CC3)nc2n1)C1CCC(F)(F)CC1 (single isomer, unassigned) [Example 14] | 3.98 nM | 
5 | Cc1nonc1C(=O)N[C@H](c1cn2ncc(C3(N4C[C@H](C(F)(F)F)NC4=O)CCN(CC(C)(F)F)CC3)nc2n1)C1CCC(F)(F)CC1 (single isomer, unassigned) [Example 15] | 316 nM | 
6 | Cc1nonc1C(=O)N[C@H](c1cn2ncc(C3(N4C[C@H](C(F)(F)F)NC4=O)CCN(C)CC3)nc2n1)C1CCC(F)(F)CC1 (single isomer, unassigned) [Example 19] | 200 nM | 
7 | Cc1nonc1C(=O)N[C@H](c1cn2ncc(C3(N4C[C@H](C(F)(F)F)NC4=O)CCOCC3)nc2n1)C1CCC(F)(F)CC1 (single isomer, unassigned) [Example 5] | 2000 nM | 
8 | Cc1nonc1C(=O)N[C@H](c1cn2ncc(C3(N4CC(C(F)(F)F)NC4=O)CCNCC3)nc2n1)C1CCC(F)(F)CC1 (stereo partly drawn) [Example 7, N—[(S)-(4,4-Difluorocyclohexyl)(3-{4-[2-oxo-4-(trifluoromethyl)imidazolidin-1-yl]-piperidin-4-yl}imidazo[1,2-b][1,2,4]triazin-6-yl)methyl]-4-methyl-1,2,5-oxadiazole-3-carboxamide] | 31.6 nM | 
9 | N—[(S)-(4,4-Difluorocyclohexyl)(3-{(3R)-3-[(4R)-2-oxo-4-(trifluoromethyl)imidazolidin-1-yl]tetrahydrofuran-3-yl}imidazo[1,2-b][1,2,4]triazin-6-yl)methyl]-4-methyl-1,2,5-oxadiazole-3-carboxamide [Example 12] |  | 6.2
10 | Cc1nonc1C(=O)N[C@H](c1cn2ncc(C3(N4C[C@@H](C(F)(F)F)NC4=O)CCOCC3)nc2n1)C1CCC(F)(F)CC1 (single isomer, unassigned) [Example 4] | 3.98 nM | 
11 | N—[(S)-(4,4-Difluorocyclohexyl)(3-{3-[(4S)-2-oxo-4-(trifluoromethyl)imidazolidin-1-yl]-oxetan-3-yl}imidazo[1,2-b][1,2,4]triazin-6-yl)methyl]-4-methyl-1,2,5-oxadiazole-3-carboxamide [Example 8] |  | 7.5
12 | N—[(S)-(4,4-Difluorocyclohexyl)(3-{3-[(4R)-2-oxo-4-(trifluoromethyl)imidazolidin-1-yl]-oxetan-3-yl}imidazo[1,2-b][1,2,4]triazin-6-yl)methyl]-4-methyl-1,2,5-oxadiazole-3-carboxamide [Example 9] |  | 5.0
13 | Cc1nonc1C(=O)N[C@H](c1cn2ncc(C3(N4C[C@H](C(F)(F)F)NC4=O)CC(F)(F)C3)nc2n1)C1CCC(F)(F)CC1 (single isomer, unassigned) [Example 2] | 1000 nM | 
14 | Cc1nonc1C(=O)N[C@H](c1cn2ncc(C3(N4C[C@@H](C(F)(F)F)NC4=O)CC3)nc2n1)C1CCC(F)(F)CC1 (single isomer, unassigned) [Example 3] | 631 nM | 
15 | Cc1nonc1C(=O)N[C@H](c1cn2ncc(C3(N4C[C@H](C(F)(F)F)NC4=O)CCN(CC(C)(C)F)CC3)nc2n1)C1CCC(F)(F)CC1 (single isomer, unassigned) [Example 17] | 251 nM | 
16 | N—[(S)-(4,4-Difluorocyclohexyl)(3-{(3S)-3-f[(4S)-2-oxo-4-(trifluoromethyl)imidazolidin-1-yl]tetrahydrofuran-3-yl}imidazo[1,2-b][1,2,4]triazin-6-yl)methyl]-4-methyl-1,2,5-oxadiazole-3-carboxamide [Example 11] |  | 8.0
17 | N—[(S)-(4,4-Difluorocyclohexyl)(3-{(3R)-3-[(4S)-2-oxo-4-(trifluoromethyl)imidazolidin-1-yl]tetrahydrofuran-3-yl}imidazo[1,2-b][1,2,4]triazin-6-yl)methyl]-4-methyl-1,2,5-oxadiazole-3-carboxamide [Example 10] |  | 7.2
18 | Cc1nonc1C(=O)N[C@H](c1cn2ncc(C3(N4C[C@@H](C(F)(F)F)NC4=O)CCN(C)CC3)nc2n1)C1CCC(F)(F)CC1 (single isomer, unassigned) [Example 18] | 10 nM | 
19 | Cc1nonc1C(=O)N[C@H](c1cn2ncc(C3(N4CC(C(F)(F)F)NC4=O)CC(F)(F)C3)nc2n1)C1CCC(F)(F)CC1 (single isomer, unassigned) [Example 1] | 6.31 nM | 
